Tests used:
[1] = system: TGF-β1-induced fibrotic plaque in the rat tunica albuginea; test: TGF-β1 rat model of Peyronie's disease, plaque and collagen deposition by Masson staining with QIA; format: in vivo; details: for plaque size (Masson staining, collagen fiber/cell-lacunae area ratio, width of the tunica): oral in drinking water, 100 mg/l, 45 days following TGF-β1 injection
Description: (§1) TGF-β1 rat model. Male Fisher 344 rats, 9-11 month old purchased from the NIH/NIA colony (Harlan Sprague-Dawley, Inc., San Diego, Calif.) and maintained under controlled temperature and lighting, were anesthetized and injected in the penile TA at the middle of the penis with either vehicle only (saline, group 1) or 0.5 μg recombinant human TGF-β1 (Biotech Diagnostic, Laguna Niguel, Calif., groups 2-5) as disclosed (Ferrini et al., 2002; Vernet et al., 2002). After the injection, groups 1 and 2 were given drinking water while the other groups received water with L-arginine (2.25 g/kg/day, group 3) (Moody et al., 1997), or sildenafil (10 mg/kg/day, group 4) or pentoxifylline (10 mg/kg/day, group 5). Forty-five days later, or as indicated, animals were sacrificed and perfused through the left ventricle with saline followed by 4% formalin ((Ferrini et al., 2002; Vernet et al., 2002). After the penises were excised, the penile skin was denuded by removing the glans and adhering non-crural tissue. The penile shaft was separated from the crura and 2-3 mm transverse slices were cut around the site of the saline or TGF-β1 injection. All tissues were post-fixed overnight in 4% formalin, washed in PBS and stored at 4° C.
In the case of tissue sections, the determinations of the collagen/smooth muscle ratio were carried out with Masson trichrome (Ferrini et al., 2002; Davila et al., 2003b) on adjacent 5 μm paraffin-embedded cross-sections from the human normal tunical or plaque tissues, or from a 2 mm area around the site of injection in the rat saline- and TGF-β1-injected shaft tissues. Other distal sections were obtained along the rat penile shaft.
(§2) The quantitation of the staining obtained by either histochemical or immunohisto/cytochemical techniques was performed by computerized densitometry using the ImagePro 4.01 program (Media Cybernetics, Silver Spring, Md.), coupled to an Olympus BHS microscope equipped with a Spot RT digital camera or VCC video camera (Wang et al., 2001; Ferrini et al., 2001a, 2001b; Davila et al., 2003b).

[2] = system: TGF-β1-induced fibrotic plaque in the rat tunica albuginea; test: TUNEL apoptosis in the TGF-β1-induced plaque of the rat tunica albuginea; format: in vivo; details: for apoptotic index in the plaque: oral in drinking water, 100 mg/l, 45 days following TGF-β1 injection
Description: as §1

[3] = system: fibroblast cultures from human PD plaque; test: cGMP and cAMP enzyme immunoassays in fibroblast cultures from human PD plaque; format: cell-based; details: for cGMP levels as % of control levels: 3-day incubation
Excerpt: (§3) Primary human cell cultures: Human fibroblast primary cultures were obtained from fragments of PD plaque or TA essentially according to Smith and Liu (2002), and their purity was established by immunohistochemistry, as detailed below. New primary cultures were obtained from fragments of PD plaque or TA that were washed in Hanks solution, minced in a fibroblast growth medium (FGM) (BioWhittaker Inc., Walkersville, Md.) and 20% fetal bovine serum (FBS), and plated onto a 25 cm^2 culture flask per specimen (Vernet et al., 2002). Fragments were left undisturbed until attachment for about 1 week. Once the monolayer started to develop, the fragment was removed. Medium with 10% FBS was changed once a week and when cells achieved approximately 80% confluence (3-4 weeks) they were trypsinized and split onto 10 cm plates. Cells were allowed to grow again to 80% confluence, with medium changed twice a week. The cells collected from this passage were considered as passage 1. Successive passages were performed at 1/3 split ratio, and studies were carried out on cells from passages 3 onwards. Studies were performed with PD cells from the 4th to the 10th passages. Cells were incubated on: a) 75 cm^2 flasks for RNA isolation; b) 6-well plates for protein isolation; and c) 8-well removable chambers for cytochemistry and immunocytochemistry. Treatments with different additions were initiated 24 hours after plating and continued for different periods.
The presence of PDEs in the PD fibroblasts in culture was confirmed by the ability of increasing concentrations of sildenafil and pentoxifylline to raise the basal cGMP and cAMP levels in triplicate wells, either in the absence or the presence of the NO donor, SNAP (S-nitroso-N-acetyl penicillamine) (Alexis Biochemicals, San Diego, Calif.) added daily at 100 μM, as measured by cGMP and cAMP EIA (enzyme immuno absorption) kits (Cayman Chemical, Ann Arbor, Mich.). Experiments were performed in duplicate. Values were expressed as pmoles cGMP or cAMP/mg protein. To normalize for differences between experiments, the changes in cGMP and cAMP levels exerted by sildenafil and pentoxifylline were expressed as % of their respective control values in the absence of the PDE inhibitors.

[4] = system: fibroblast cultures from human PD plaque; test: Collagen I/III and ASMA immunocytochemistry with QIA in fibroblast cultures from human PD plaque; format: cell-based; details: for number of ASMA positive cells (myofibroblasts): control 37%; for synthesis of collagen III: PDE inhibitors
Excerpt: as §3
In the case of cell cultures, at completion of incubations, slides were removed from the chambers and cells were fixed for immunodetection for 20 min in 4% buffered formalin at room temperature for α-smooth muscle actin (ASMA) (as a myofibroblast marker), vimentin (as a general fibroblast marker), and in certain cases for PDE5 and PDE4, or in ethanol at −20 C for collagen I and III (Vernet et al., 2002). The cells were quenched, blocked with normal goat serum and incubated with monoclonal primary antibodies for ASMA and vimentin (Sigma Immunohistology Kits, Sigma Chemical Co, St. Louis, Mo.), collagen I, and collagen III (1:40) (Chemicon International, Temecula, Calif.), overnight at 4° C. (Vernet et al., 2002; Ferrini et al., 2002). Processing was according with the manufacturer's instructions for ASMA, vimentin and collagen, consisting in the respective monoclonal antibodies and an anti-mouse biotinylated secondary antibody, followed by avidin-biotinylated HRP and the 3-amino-9-ethylcarbazol (AEC) chromogen. For PDE5A, the antibodies were as described above. Negative controls omitted the first antibodies or were replaced by IgG isotype at the same concentration of the first antibodies. Counterstaining was done with Mayer's hematoxylin. All the slides were mounted with Aqua Mount (Lerner, Pittsburgh, Pa.). For PDE4, the anti PDE4A and PDE4B affinity purified IgGs used for western blot was employed, and in addition the anti-PDE4A4 and anti-PDE4D (detecting variants 1-5) from the same source (FabGennix Inc.) were used.
as §2

[5] = cited from earlier work
PDE5A3 = PDE5A3 (Homo sapiens, UniProt O76074); details: cited from earlier work
[6] = system: normal human TA and PD fibroblast cultures; test: Fibroblast numbers in normal human TA and PD cultures; format: cell-based; details: both normal human TA and PD cultures
Excerpt: as §3, with “Treatments with different additions were initiated 24 hours after plating and continued for different periods.” left out

[7] = system: fibroblast cultures from human PD plaque; test: TUNEL apoptosis in fibroblast cultures from human PD plaque
Description: Cells incubated in 8-well chamber slides were allowed to grow to 50-60% confluence. At this point, cells received in duplicate sildenafil, pentoxifylline, or 8-Br cGMP at the concentrations indicated, and were allowed to propagate for 3 days without changing medium. In certain cases SNAP was added and replaced daily after changing the medium (Vernet et al., 2002). All studies were done in duplicate or triplicate.
For cell cultures, the cells were fixed in 4% formaldehyde for 30 min on ice, and post-fixed with ethanol-acetic acid 2/1 for 5 min at −20 C. Then the above procedure was applied, except that the proteinase K was omitted.
The number of positive cells was counted in a computerized grid against the total number of cells determined by counterstaining, and results were expressed as a percentage of positive cells over total cells. […] The apoptotic index (rate of programmed cell death) was calculated as the percentage of apoptotic cells within the total number of cells in a given area (non-apoptotic nuclei plus apoptotic cells). In all cases, five non-overlapping fields were screened per tissue section or per well. Three sections per tissue specimen from groups of five animals, or two wells per experimental point in cell incubations, were then used to calculate the means+/−SEM.

[8] = in the presence of SNAP (100 uM), increasing concentrations

SMILES: N=C(N)NCCC[C@H](N)C(=O)O [L-arginine]
- size of the TGF-β1-induced plaque (Masson staining, collagen fiber/cell-lacunar area ratio) ([1]; oral L-arginine in drinking water (2.25%), 45 days after TGF-β1 injection): considerable decrease in the size
- apoptotic index (apoptotic cells/total number of cells) in the plaque ([2]; oral L-arginine (2.25%)): no significant difference
- number of apoptotic cells per field in the PD-like plaque ([2]; oral L-arginine (2.25%), vs control animals): increase

SMILES: CCCc1nn(C)c2c(=O)[nH]c(-c3cc(S(=O)(=O)N4CCN(C)CC4)ccc3OCC)nc12 [sildenafil]
- plaque size (Masson staining, collagen fiber/cell-lacunae area ratio, width of the tunica) [1]: considerable reduction in plaque size
- apoptotic index in the plaque [2]: intensification of the apoptotic index
- cGMP levels ([3]; in the absence of SNAP): did not significantly stimulate
- cGMP levels as % of control levels [3, 8]: increased dose-dependently
- number of ASMA positive cells (myofibroblasts) ([4]; 3 days): about 24%
- synthesis of collagen III ([4]; 3 days): did not decrease, but even increased
- half-life [5]: 4 to 6 h
- sensitivity of PDE5A3 to sildenafil compared with PDE5A1 (PDE5A3): twice as sensitive

SMILES: CC(=O)N[C@H](C(=O)O)C(C)(C)SN=O [SNAP, S-Nitroso-N-acetyl penicillamine]
- increase of cGMP levels in cell extracts ([3]; 100 uM SNAP, 3 days, daily replacement, basal 5.0+/−0.4 pmol/mg protein): 5.0 fold
- cAMP levels ([3]; after 3 days with SNAP, basal 42.6+/−12.7 pmol/mg protein): did not vary significantly
- collagen I synthesis in all the cells ([4]; NO donor in culture): inhibitory action
- myofibroblast differentiation ([4]; NO donor in culture): inhibitory action
- fibroblast numbers [6]: reduced fibroblast numbers

SMILES: Nc1nc2c(nc(Br)n2[C@@H]2O[C@@H]3COP(=O)(O)O[C@H]3[C@H]2O)c(=O)[nH]1 [8 Br-cGMP]
- intracellular cGMP levels ([3]; 100 uM, control 0.02): 1.83 nmoles/10^6 cells
- increase of cGMP levels in cell extracts ([3]; 8 Br-cGMP at 10 uM): 6.4 fold
- increase of cGMP levels in cell extracts ([3]; 8 Br-cGMP at 100 μM): 38.7 fold
- reduction in the number of cells expressing collagen I ([4]; 10 μM, 3 days): 30%
- ASMA expression per cell (myofibroblast differentiation) ([4]; 400 μM, 3 days): decreased significantly
- number of cells expressing collagen I ([4]; 400 μM, 3 days, compared with 10 μM): did not induce further decrease
- collagen I expression per cell ([4]; 3 days): reduced only moderately and non-significantly
- relative number of ASMA positive cells ([4]; 3 days): no effect
- collagen I production by the cells ([4]; levels as low as 10 uM): inhibited collagen I production
- apoptosis by TUNEL ([7]; 100 uM, control 7.5+/−0.4): 20.5+/−1.1 cells per field
- increase of apoptosis (apoptotic index, TUNEL, image analysis) ([7]; 3 days, did not achieve statistical significance): 2.3 fold

SMILES: CC(=O)CCCCn1c(=O)c2c(ncn2C)n(C)c1=O [pentoxifylline]
- plaque size (Masson staining, collagen fiber/cell-lacunae area ratio, width of the tunica) [1]: considerable reduction in plaque size
- apoptotic index in the plaque [2]: intensification of the apoptotic index, especially for pentoxifylline
- cGMP levels as % of control levels [3, 8]: did not increase significantly
- cAMP levels as % of control levels ([3]; in the presence of SNAP (100 uM), increasing concentrations, 3 days): very effective in increasing cAMP levels
- number of ASMA positive cells (myofibroblasts) ([4]; 3 days): about 24%
- synthesis of collagen III ([4]; 3 days): did not decrease, but even increased
